{"source": "patent US8658668B2", "about": "“PI3 kinase/mTOR dual inhibitor” (Eli Lilly and Company, priority 2011, dated 2014)", "key": {"[1]": {"test_system": "S6RP(pS240/242)", "test": "Phosphorylated S6RP in U87MG cells", "assay_type": "cell-based", "details": "Homo sapiens, U-87 MG, n = 3, read-out: S6RP(pS240/242) Absolute IC50", "experimental": "This homogeneous assay format uses immuno-sandwich capture of the phosphorylated analyte and then detection with antibody-coated Alphascreen beads to generate an amplified signal.\nMaintain U87MG cells in U87MG growth medium consisting of DMEM (GIBCO 11965-092) supplemented with 10% fetal bovine serum (FBS, GIBCO, 10091-141), 1% nonessential amino acids (GIBCO, 11140-050) and 1% sodium pyruvate (GIBCO, 11360-070). Harvest cells using standard cell culture procedures and then count using Vi-Cell. Plate 100 μL of U87MG cells in growth medium (50,000 cells/well) into Costar #3596 96 well plates and incubate overnight at 37° C., 5% CO2.\nIncubate for one h at 37° C., then remove the medium and add 50 μL of 1× SureFire Lysis Buffer (TGR Biosciences SureFire® Kit component) to each well and incubate at room temperature for 10 min with gentle shaking Transfer 6 μL lysate and 10 μL reaction mixture (60 parts reaction buffer/10 parts activation buffer/1 part each of donor and acceptor beads, Perkin Elmer, 6760617R) to a 384 well proxiplate (Perkin Elmer, 6006280) for the p-p70S6 kinase (Thr389) and p-AKT(Ser473) assays. Seal the plate and incubate at RT for 4 h. […] Read the plates on a Perkin Elmer EnVision equipped with a TurboModule using standard AlphaScreen® settings (Ex680 nm and Em520-620 nm). […]"}, "[2]": {"test_system": "BXF 1228 human tumor xenograft cells", "test": "Oncotest tumor clonogenic assay, BXF 1228", "assay_type": "cell-based", "details": "colony formation, Bladder BXF 1228, transitional cell carcinoma, wd, read-out: Absolute IC50"}, "[3]": {"test_system": "CXF 1103 human tumor xenograft cells", "test": "Oncotest tumor clonogenic assay, CXF 1103", "assay_type": "cell-based", "details": "CXF1103, colony formation, Colon CXF 1103, adeno carcinoma, pd, read-out: Absolute IC50"}, "[4]": {"test_system": "LXFE 211 human tumor xenograft cells", "test": "Oncotest tumor clonogenic assay, LXFE 211", "assay_type": "cell-based", "details": "colony formation, NSCLC LXFE 211, squamous cell carcinoma, ud, read-out: Absolute IC50"}, "[5]": {"test_system": "RXF 1220 human tumor xenograft cells", "test": "Oncotest tumor clonogenic assay, RXF 1220", "assay_type": "cell-based", "details": "colony formation, Renal RXF 1220, hypernephroma, pd, read-out: Absolute IC50"}, "[6]": {"test_system": "RXF 486 human tumor xenograft cells", "test": "Oncotest tumor clonogenic assay, RXF 486", "assay_type": "cell-based", "details": "colony formation, Renal RXF 486, hypernephroid adeno carcinoma, clear cell, read-out: Absolute IC50"}, "[7]": {"test_system": "pT308 AKT", "test": "In vivo target inhibition in U87MG tumors, pT308 AKT", "details": "Mus musculus, U-87 MG; for inhibition at 0.5 mg/kg: 0.5 mg/kg oral; for inhibition at 1.5 mg/kg: 1.5 mg/kg oral; for inhibition at 3 mg/kg: 3 mg/kg oral; for inhibition at 6 mg/kg: 6 mg/kg oral; for inhibition at 10 mg/kg: 10 mg/kg oral; for inhibition at 12 mg/kg: 12 mg/kg oral", "experimental": "Implant U87MG human glioblastoma cells (5×10^6) subcutaneously into the flank of athymic nude mice in 0.2 mL of matrigel. Ten days post-implantation, dose mice orally according to a time course, single dose/single time point, or dose response protocol for the determination of TMED50 (threshold minimum effective dose). Flash freeze tumors at harvest and collect blood for the determination of parent compound plasma exposure and the calculation of TMEC50 (threshold minimum effective concentration) in the case of dose response studies. Homogenize tumors in 500 μL of XY Lysis Buffer (10 μg/mL Leupeptin, 10 μg/mL Trypsin-Chymotrypsin Inhibitor, 10 μg/mL Tosyl phenyl-alanyl chloromethyl ketone, 10 μg/mL Aprotinin, 60 mM Beta-Glycerol Phosphate, 1% Triton X100, 25 mM Tris pH 7.5, 2.5 mM Pyrophosphate, 150 mM NaCl, 2 mM p-tosyl-L-arginine methyl ester, 15 mM para-nitrophenyl phosphate, 5 mM benzamidine, 1 mM sodium vanadate, 10 mM sodium fluoride, 50 μg/mL phenyl-methane sulfonyl fluoride, 1 mM 1,4-dithiothreitol (DTT), 15 mM EDTA pH 8.0, 5 mM EGTA pH 8.0, 1 μM Microcystin, 1 μM Okadaic Acid, and 1 Roche Complete protease inhibitor mini-tablet per 10 mL) using RNase Free Pellet Pestle (Kimble-Kontes). Aliquot lysates and either assay immediately or store at −80° C. for later testing. Use the multiplex format of Meso Scale Discovery (Gaithersburg, Md.) ELISA technology and measure in vivo target inhibition of PI3K and mTOR to assess effects on phosphorylation of the threonine 308 site of AKT, a downstream effector of PI3K; phosphorylation on the threonine 389 site of p70 S6K and on the serine 240/244 site of S6RP, downstream effectors of mTORC1; phosphorylation of the serine 473 site of AKT, a downstream effector of mTORC2. Add 20 μg of lysate to carbon electrode containing 96-well plates pre-spotted with the appropriate capture antibodies. Probe the protein of interest using a ruthenium labeled detection antibody. Pass current over the electrode in the presence of read buffer containing the co-reactant TPA, and quantitate and record the light generated by electro-chemiluminescence with the MSD Sector 6000 instrument. Calculate percent inhibitions relative to the vehicle control group and perform ANOVA analysis using the JMP software package for the determination of statistical significance."}}}
{"smiles": "CO[C@@H](C)Cn1c(=O)n(C)c2cnc3ccc(-c4cncc(C(C)(C)O)c4)cc3c21", "note": "[Example 1, 8-[5-(1-Hydroxy-1-methylethyl)pyridin-3-yl]-1-[(2S)-2-methoxypropyl]-3-methyl-1,3-dihydro-2H-imidazo[4,5-c]quinolin-2-one]", "values": [{"measurement": "IC50", "setting": "[1]", "result": 0.0191, "unit": "µM"}, {"measurement": "IC50", "setting": "[2]", "result": 0.031, "unit": "µM"}, {"measurement": "IC50", "setting": "[3]", "result": "> 0.2", "unit": "µM"}, {"measurement": "IC50", "setting": "[4]", "result": 0.108, "unit": "µM"}, {"measurement": "IC50", "setting": "[5]", "result": 0.191, "unit": "µM"}, {"measurement": "IC50", "setting": "[6]", "result": 0.112, "unit": "µM"}, {"measurement": "inhibition at 0.5 mg/kg", "setting": "[7]; 0.5 hr post dose", "result": 23, "unit": "%"}, {"measurement": "inhibition at 0.5 mg/kg", "setting": "[7]; 4 hr post dose", "result": 1, "unit": "%"}, {"measurement": "inhibition at 1.5 mg/kg", "setting": "[7]; 0.5 hr post dose", "result": 28, "unit": "%"}, {"measurement": "inhibition at 1.5 mg/kg", "setting": "[7]; 4 hr post dose", "result": -8, "unit": "%"}, {"measurement": "inhibition at 3 mg/kg", "setting": "[7]; 0.25 hr post dose", "result": 28, "unit": "%"}, {"measurement": "inhibition at 3 mg/kg", "setting": "[7]; 0.5 hr post dose", "result": 43, "unit": "%"}, {"measurement": "inhibition at 3 mg/kg", "setting": "[7]; 1 hr post dose", "result": 7, "unit": "%"}, {"measurement": "inhibition at 3 mg/kg", "setting": "[7]; 3 hr post dose", "result": 7, "unit": "%"}, {"measurement": "inhibition at 3 mg/kg", "setting": "[7]; 4 hr post dose", "result": -2, "unit": "%"}, {"measurement": "inhibition at 6 mg/kg", "setting": "[7]; 0.25 hr post dose", "result": 47, "unit": "%"}, {"measurement": "inhibition at 6 mg/kg", "setting": "[7]; 0.5 hr post dose", "result": 61, "unit": "%"}, {"measurement": "inhibition at 6 mg/kg", "setting": "[7]; 1 hr post dose", "result": 41, "unit": "%"}, {"measurement": "inhibition at 6 mg/kg", "setting": "[7]; 2 hr post dose", "result": 32, "unit": "%"}, {"measurement": "inhibition at 6 mg/kg", "setting": "[7]; 4 hr post dose", "result": 1, "unit": "%"}, {"measurement": "inhibition at 6 mg/kg", "setting": "[7]; 6 hr post dose", "result": -4, "unit": "%"}, {"measurement": "inhibition at 6 mg/kg", "setting": "[7]; 12 hr post dose", "result": -16, "unit": "%"}, {"measurement": "inhibition at 10 mg/kg", "setting": "[7]; 0.5 hr post dose", "result": 88, "unit": "%"}, {"measurement": "inhibition at 10 mg/kg", "setting": "[7]; 1 hr post dose", "result": 71, "unit": "%"}, {"measurement": "inhibition at 10 mg/kg", "setting": "[7]; 2 hr post dose", "result": 53, "unit": "%"}, {"measurement": "inhibition at 10 mg/kg", "setting": "[7]; 4 hr post dose", "result": 44, "unit": "%"}, {"measurement": "inhibition at 10 mg/kg", "setting": "[7]; 8 hr post dose", "result": 13, "unit": "%"}, {"measurement": "inhibition at 12 mg/kg", "setting": "[7]; 0.5 hr post dose", "result": 79, "unit": "%"}, {"measurement": "inhibition at 12 mg/kg", "setting": "[7]; 4 hr post dose", "result": 43, "unit": "%"}]}
